Reference: PMC4550221 (Bioorganic & medicinal chemistry, 2015)
Counter-ions that a name gives are not always drawn. Like-named read-outs stand apart in the source and are kept apart here.

What was measured:
P. falciparum 3D7 [1] = assay: Inhibition of parasite growth in P. falciparum 3D7-infected red blood cells; type: cell-based, Plasmodium falciparum; settings: for 3D7 potency described in words (relative to comparator): comparator 4e unless 4-series (4a); for fold loss in 3D7 potency: R8 changes relative to parent analog (4a series); for IC50: Plasmodium falciparum, 3D7, Erythrocyte; for fold reduction in 3D7 potency: relative to 4e (isopentyl R1)
HepG2 72 h cytotoxicity = settings: human, HepG2 cells
HepG2 cells = assay: HepG2 72 h cytotoxicity; settings: HepG2 cytotoxicity vs antimalarial activity
P. falciparum 3D7 [2] = settings: read-out: reported XC50; TCAMS screening dataset; cited from earlier work
[3] = Rat PK experiment in vivo; settings: iv, 1 mg/kg
Plasmodium = settings: read-out: reported EC50; Novartis-GNF collection, GNF-Pf-5345; cited from earlier work

SMILES	3D7 potency described in words (relative to comparator) (P. falciparum 3D7 [1])	other results
CCN1C(=O)N(Cc2ccc(OC)cc2)C2(CCN(Cc3cc(Cl)ccc3O)CC2)C1=O [Compound 10g]	tolerated with some modest effects on potency	–
CCN1C(=O)N(CCC(C)C)C2(CCN(Cc3cccc(Cl)c3)CC2)C1=O [Compound 4f]	–	fold loss in 3D7 potency (P. falciparum 3D7 [1]): 8- to 60 fold
CCN1C(=O)N(CCC(C)C)C2(CCN(Cc3cccc4cc[nH]c34)CC2)C1=O [Compound 12u]	hint of potency	–
CCN1C(=O)N(CCC(C)C)C2(CCN(Cc3c(O)cccc3Cl)CC2)C1=O [Compound 12g]	essentially equipotent	–
CC(C)CCN1C(=O)N(C(C)C)C(=O)C12CCN(Cc1cc(Cl)ccc1O)CC2 [Compound 11b]	improved potency three-fold	–
CCN1C(=O)N(CCC(C)C)C2(CCN(Cc3cccc(OC)c3O)CC2)C1=O [Compound 4b]	–	fold loss in 3D7 potency (P. falciparum 3D7 [1]): 6 fold
CCN1C(=O)N(CCC(C)C)C2(CCN(Cc3cc(Br)ccc3O)CC2)C1=O [Compound 12d]	well tolerated	–
CC(C)CCN1C(=O)N(Cc2cccnc2)C(=O)C12CCN(Cc1cc(Cl)ccc1O)CC2 [Compound 11c]	modest two-three-fold losses of potency	–
CCN1C(=O)N(CCC(C)C)C2(CCN(Cc3cc(Cl)c(Cl)cc3O)CC2)C1=O [Compound 12k]	–	IC50 at 72 h (HepG2 72 h cytotoxicity): > 50000 nM; selectivity index (HepG2 cells): greater than 500; IC50 (P. falciparum 3D7 [1]; read-out: IC50 in P. falciparum 3D7 infected erythrocytes, 3D7 (chloroquine-sensitive) strain): 99 nM
CCN1C(=O)N(Cc2ccccc2)C2(CCN(Cc3cc(Cl)ccc3O)CC2)C1=O [Compound 10e]	roughly equipotent	–
CCN1C(=O)N(CCc2ccccc2)C2(CCN(Cc3cc(Cl)ccc3O)CC2)C1=O [Compound 10f]	roughly equipotent	–
CCN1C(=O)N(CCC(C)C)C2(CCN(Cc3ccc(OC)cc3OC)CC2)C1=O [Compound 4g]	–	fold loss in 3D7 potency (P. falciparum 3D7 [1]): 8- to 60 fold
CCN1C(=O)N(CCC(C)C)C2(CCN(Cc3ccccc3O)CC2)C1=O [Compound 4d]	did not have a significant impact on potency	–
CCN1C(=O)N(CCC(C)C)C2(CCN(Cc3cc(O)cc(Cl)c3)CC2)C1=O [Compound 12a]	increasingly detrimental to 3D7 potency	–
CCN1C(=O)N(CCC(C)C)C2(CCN(C(=O)c3cc(Cl)ccc3O)CC2)C1=O [Compound 12m]	lack of 3D7 potency	–
CCN1C(=O)N(CCC(C)C)C2(CCN(Cc3ccc(OC)cc3O)CC2)C1=O [Compound 4a]	–	IC50 (P. falciparum 3D7 [2]): 840 nM
CCN1C(=O)N(CCC(C)C)C2(CCN(Cc3cc(Cl)ccc3O)CC2)C1=O [Compound 4e, 8-(5-chloro-2-hydroxybenzyl)-3-ethyl-1-isopentyl-1,3,8-triazaspiro[4.5]decane-2,4-dione hydrochloride]	about a five-fold improvement in potency	selectivity index (HepG2 cells): > 100; clearance [3]: 152 mL/min/kg; EC50 (Plasmodium): 349 nM; IC50 (P. falciparum 3D7 [1]; read-out: IC50 in P. falciparum 3D7 infected erythrocytes): 310 nM
CCN1C(=O)N(Cc2ccc(C#N)cc2)C2(CCN(Cc3cc(Cl)ccc3O)CC2)C1=O [Compound 10h]	tolerated with some modest effects on potency	–
CCN1C(=O)N(CC)C2(CCN(Cc3cc(Cl)ccc3O)CC2)C1=O [Compound 10b]	–	fold reduction in 3D7 potency (P. falciparum 3D7 [1]): ≥ 20 fold
CC(C)CCN1C(=O)NC(=O)C12CCN(Cc1cc(Cl)ccc1O)CC2 [Compound 11a]	dramatic loss in activity	–
CCN1C(=O)N(c2ccccc2)C2(CCN(Cc3cc(Cl)ccc3O)CC2)C1=O [Compound 10d]	detrimental to potency	–
CCN1C(=O)N(CCC(C)C)C2(CCN(Cc3cc(-c4ccccc4)ccc3O)CC2)C1=O [Compound 12f]	–	IC50 at 72 h (HepG2 72 h cytotoxicity): > 50000 nM
CC(C)CCN1C(=O)N(CCCc2ccncc2)C(=O)C12CCN(Cc1cc(Cl)ccc1O)CC2 [Compound 11d]	modest two-three-fold losses of potency	–
CCN1C(=O)NC2(CCN(Cc3cc(Cl)ccc3O)CC2)C1=O [Compound 10a]	–	fold reduction in 3D7 potency (P. falciparum 3D7 [1]): ≥ 20 fold
CCN1C(=O)N(C2CCCC2)C2(CCN(Cc3cc(Cl)ccc3O)CC2)C1=O [Compound 10c]	well tolerated	–
CCN1C(=O)N(CCC(C)C)C2(CCN(Cc3cc(Cl)cc(Cl)c3O)CC2)C1=O [Compound 12j]	equipotent	–
CCN1C(=O)N(CCC(C)C)C2(CCN(Cc3ccc(Cl)cc3O)CC2)C1=O [Compound 12h]	three- to seven-fold less potent	IC50 at 72 h (HepG2 72 h cytotoxicity): > 50000 nM
